Reference: paper PMC5789092 (Scientific Reports, 2018)
Like-named read-outs stand apart in the source and are kept apart here.

What was measured:
[1] = tested on: HeLa (human cervix cancer); assay: SRB cytotoxicity assay, HeLa; type: cell-based; conditions: 72 h, mean ± SD
[2] = tested on: CHO (Chinese hamster ovary); assay: SRB cytotoxicity assay, CHO normal cells; type: cell-based; conditions: Cricetulus griseus, 72 h, normal cell line
Excerpt: (§1) All the synthesized derivatives of 1 and 2 were screened for their anticancer activities against four human cancer cell lines (HeLa, PC-3, HEp-2 and HepG2) and two normal cell lines (CHO and HUVEC) using the sulforhodamine B (SRB) assay.
(§2) PC-3 (human prostate cancer), HepG2 (human liver cancer) and CHO (Chinese hamster ovary) cell lines were obtained from Shanghai Institute of Biochemistry and Cell Biology, Chinese Academy of Sciences. HeLa (human cervix cancer), HUVEC (human umbilical vein endothelial cells) and HEp-2 (human laryngeal cancer) cell lines were granted by Prof. Lei of college of life sciences, Northwest A&F University. The six cell lines were grown in RPMI-1640 (Gibco) containing 10% (v/v) thermally inactivated fetal bovine serum (FBS), penicillin (100 KU/L) and streptomycin (100 KU/L) at 37 °C in a 5% CO2 humidified incubator.
(§3) In vitro cytotoxicity was assessed by using the SRB colorimetric assay refer to previous methods[19],[42].

[3] = tested on: HUVEC (human umbilical vein endothelial cell); assay: SRB cytotoxicity assay, HUVEC normal cells; type: cell-based; conditions: for IC50: Homo sapiens, HUVEC, 72 h, SRB, normal cell line
[4] = tested on: HEp-2 (human larynx epidermal cancer); assay: SRB cytotoxicity assay, HEp-2; type: cell-based; conditions: 72 h, mean ± SD
Excerpt: as §1, §2, §3

[5] = tested on: HepG2 (human liver cancer); assay: SRB cytotoxicity assay, HepG2; type: cell-based; conditions: 72 h
[6] = tested on: PC-3 (human prostate cancer); assay: SRB cytotoxicity assay, PC-3; type: cell-based; conditions: 72 h
PC-3 cells [7] = assay: Cell cycle analysis (PI staining, flow cytometry); type: cell-based, human; conditions: PC-3, 48 h
Experimental: The cultured cells were treated with these compounds at the indicated concentrations for 48 h, then harvested, and analyzed by flow cytometry. […] Each experiment was performed in triplicate.
The cell cycle arrest on PC-3 and HepG2 cells was detected with PI staining assay (Sigma) as described previously[19]. After treatment with samples at the set concentrations for 48 h, cells were centrifuged and fixed in 70% ethanol at 4 °C refrigerator 12 h and then resuspended in PBS (100 μL RNase A and 400 μL PI). Cellular DNA content was measured using a FACSCalibur flow cytometer with Modfit LT 3.0 software. Twenty thousand cells were collected per sample. Mean values are presented from three independent experiments.

[8] = tested on: pro-caspase 3 and PARP in PC-3 cells; assay: Western blotting of pro-caspase 3 and PARP; type: cell-based, human; conditions: PC-3, 72 h, 1, 2 and 4 μM
Experimental: (§4) Figure 10 Induction of apoptosis by active compound 1i and VP-16 at the indicated concentrations on PC-3 cells. (a) 72 h after the treatment of these compounds at the indicated concentrations, cells were fixed, washed with PBS, stained with Hoechst 33258, and analyzed for morphological characteristics associated with apoptosis by fluorescence microscopic analysis (×20). (b) Compound 1i triggered changes of pro-caspase 3 and PARP by Western blotting analysis. Cells were lysed after 72 h treatment with 1i at the concentration (1, 2 and 4 μM). The lysates were resolved on a 10% SDS-PAGE, transferred on to a nitrocellulose membrane and probed for cleaved caspase 3 and PARP. β-actin was used as a loading control.
PC-3 cells were treated with the indicated concentrations (1, 2 and 4 µM) of 1i for 72 h, cell were collected and lysed. The protein concentration was measured by BCA method, and equal amount proteins were electrophoresed on 10% SDS-PAGE gel, electrotransferred onto NC membrane, and incubated with appropriate primary and secondary antibodies, protein blots were tested by ECL solution and ChemiDoc XRS+ imaging system (Bio-Rad, USA).

PC-3 cells [9] = assay: Hoechst 33258 nuclear chromatin condensation, PC-3; type: cell-based, human; conditions: PC-3, 72 h; VP-16 0.5 and 1 μM; 1i 1, 2 and 4 μM
Experimental: as §4
Condensation of nuclear chromatin is usually the late apoptotic event and is detected by staining Hoechst 33258[43]. PC-3 cells containing 2.0 × 10^5 cells/well were cultured on coverslips, and kept in six-well plates for 12 h. After 72 h treatment with 1i and VP-16, Hoechst 33258 staining was carried out according to the kit’s procedure (Beyotime Institute Biotechnology, China). The cells were viewed under a fluorescence microscopy (Olympus BX53 + DP72) with a ×20 objective lens.

HepG2 cells = assay: Hoechst 33258 nuclear morphology, HepG2; type: cell-based, human; conditions: HepG2, 72 h
Experimental: Figure S2. Induction of apoptosis by active compounds 1 and 1i at the indicated concentrations on HepG2 cells. 72 h after the treatment of these compounds at the indicated concentrations, cells were fixed, washed with PBS, stained with Hoechst 33258, and analyzed for morphological characteristics associated with apoptosis by fluorescence microscopic analysis (20×). NMR spectra

[10] = tested on: HeLa, PC-3, HEp-2 and HepG2 cells; assay: SRB cytotoxicity, summary over the cancer cell lines; type: cell-based, human
[11] = tested on: CHO (Chinese hamster ovary); conditions: footnote b; ref Xiang et al.[22]; cited from earlier work
[12] = tested on: HEp-2 (human larynx epidermal cancer); conditions: footnote b; ref Xiang et al.[22]; cited from earlier work
[13] = mean ± SD, read-out: IC50 HepG2
[14] = read-out: IC50 HepG2 (Table 3, C13-methylene modified derivatives)
[15] = read-out: IC50 PC-3 (Table 3, C13-methylene modified derivatives)

Row | SMILES | IC50 [1] | IC50 [4] | IC50 [5, 13] | IC50 ([6]; mean ± SD, read-out: IC50 PC-3) | IC50 [5, 14] | IC50 [6, 15] | further results
1 | C=C1C(=O)OC2CC3(C)C(=CC12)C(C)CCC3OC(C)=O (stereo not drawn) [1a, 1β-ethanoyl alantolactone] | 8.2 ± 1 µM | 10.3 ± 1.8 µM | 6.3 ± 1.3 µM | 8.1 ± 0.3 µM |  |  | IC50 [2]: 10.3 ± 1.8 µM; IC50 [3]: 12.3 ± 1.6 µM
2 | C=C1C(=O)O[C@@H]2C[C@]3(C)C(=C[C@H]12)[C@@H](C)CC[C@H]3OC(=O)c1ccccc1 [1b, 1β-benzoyl alantolactone] | 25.5 ± 3.2 µM | > 40 µM | > 40 µM | > 40 µM |  |  | 
3 | C=C1C(=O)O[C@@H]2C[C@]3(C)C(=C[C@H]12)[C@@H](C)CC[C@H]3OC(=O)c1ccc(F)cc1 [1c, 1β-(4-fluorobenzoyl) alantolactone] | > 40 µM | > 40 µM | > 40 µM | > 40 µM |  |  | 
4 | C=C1C(=O)O[C@@H]2C[C@]3(C)C(=C[C@H]12)[C@@H](C)CC[C@H]3OC(=O)c1ccc([N+](=O)[O-])cc1 [1d] | > 40 µM | > 40 µM | 23.5 ± 3.6 µM | > 40 µM |  |  | 
5 | C=C1C(=O)O[C@@H]2C[C@]3(C)C(=C[C@H]12)[C@@H](C)CC[C@H]3OC(=O)c1ccc(OC)cc1 [1e] | > 40 µM | > 40 µM | 34.1 ± 4.8 µM | > 40 µM |  |  | 
6 | C=C1C(=O)O[C@@H]2C[C@]3(C)C(=C[C@H]12)[C@@H](C)CC[C@H]3OC(=O)/C=C/c1ccc(Br)cc1 [1f, 1β-(4-bromocinnamoyl) alantolactone] | > 40 µM | > 40 µM | 12.5 ± 2.2 µM | 18.7 ± 5.2 µM |  |  | 
7 | C=C1C(=O)O[C@@H]2C[C@]3(C)C(=C[C@H]12)[C@@H](C)CC[C@H]3OC(=O)/C=C/c1ccc(C(F)(F)F)cc1 [1g, 1β-(4-trifluoromethyl) alantolactone] | 10 ± 2.1 µM | > 40 µM | 15.2 ± 3.8 µM | 11.8 ± 2.8 µM |  |  | 
8 | C=C1C(=O)O[C@@H]2C[C@]3(C)C(=C[C@H]12)[C@@H](C)CC[C@H]3OC(=O)CCC(=O)O [1h, 1β-carboxypropionyl alantolactone] | > 40 µM | > 40 µM | > 40 µM | > 40 µM |  |  | IC50 [3]: 39.5 ± 2.5 µM
9 | C=C1C(=O)O[C@@H]2C[C@@]3(C)C(=O)CC[C@H](C)C3=C[C@H]12 [1i, 1-carbonyl-alantolactone] | 2.7 ± 0.1 µM | 3.5 ± 0.9 µM | 5.1 ± 0.2 µM | 2.5 ± 0.8 µM | > 40 µM | > 40 µM | %G0/G1 (PC-3 cells [7]; 1.0 μM): 50.5%; %G2/M (PC-3 cells [7]; 1.0 μM): 17.5%; %S (PC-3 cells [7]; 1.0 μM): 32.0%; %G0/G1 (PC-3 cells [7]; 2.0 μM): 47.7%; %G2/M (PC-3 cells [7]; 2.0 μM): 18.5%; %S (PC-3 cells [7]; 2.0 μM): 33.8%; %G0/G1 (PC-3 cells [7]; 4.0 μM): 44.6%; %G2/M (PC-3 cells [7]; 4.0 μM): 19.5%; %S (PC-3 cells [7]; 4.0 μM): 35.9%; IC50 [2]: 2.5 ± 0.2 µM; pro-caspase 3 and cleavage of PARP (Western blot) [8]: significant dose-dependent decrease in pro-caspase 3 and the cleavage of its substrate PARP; nuclear morphology (Hoechst 33258), apoptosis (PC-3 cells [9]): apoptotic tendency was apparent; nuclear morphology (Hoechst 33258), apoptosis (HepG2 cells): Changes of nuclear morphology; IC50 [3]: 8.8 ± 0.7 µM; selectivity index (IC50 on four cancer cells versus HUVEC cells) ([3]; comparison of IC50 between four cancer cells and HUVEC): 2–3
10 | CC1CCC(OC(=O)c2ccccc2)C2(C)CC3OC(=O)C4(CCC(=O)O4)C3C=C12 (stereo not drawn) [1j, 1β-benzoyl alanto-spirobislactone] |  |  |  |  | > 40 µM | > 40 µM | 
11 | Cc1ccc(C2=NO[C@]3(C2)C(=O)O[C@@H]2C[C@@]4(C)C(=O)CC[C@H](C)C4=C[C@@H]23)cc1 [1k, (11 S)-16-(p-methylphenyl)-spiroisoxazoline-1-carbonyl-alantolactone] |  |  |  |  | > 40 µM | > 40 µM | 
12 | C[C@H]1CCC(=O)[C@]2(C)C[C@H]3OC(=O)[C@]4(CC(c5ccc([N+](=O)[O-])cc5)=NO4)[C@H]3C=C12 [1l, (11 S)-16-(p-nitrophenyl)-spiroisoxazoline-1-carbonyl-alantolactone] |  |  |  |  | > 40 µM | > 40 µM | 
13 | C[C@H]1CCC(=O)[C@]2(C)C[C@H]3OC(=O)[C@]4(CC(c5ccccc5[N+](=O)[O-])=NO4)[C@H]3C=C12 [1m, (11 S)-16-(o-nitrophenyl)-spiroisoxazoline-1-carbonyl-alantolactone] |  |  |  |  | > 40 µM | > 40 µM | 
14 | C[C@H]1CCC(=O)[C@]2(C)C[C@H]3OC(=O)[C@]4(CC(c5ccc(Cl)cc5)=NO4)[C@H]3C=C12 [1n, (11 S)-16-(p-chlorophenyl)-spiroisoxazoline-1-carbonyl-alantolactone] |  |  |  |  | > 40 µM | > 40 µM | 
15 | COc1ccc(C2=NO[C@]3(C2)C(=O)O[C@@H]2C[C@@]4(C)C(=O)CC[C@H](C)C4=C[C@@H]23)cc1 [1o, (11 S)-16-(p-methoxyphenyl)-spiroisoxazoline-1-carbonyl-alantolactone] |  |  |  |  | > 40 µM | > 40 µM | 
16 | COc1ccc(Cl)cc1C1=NO[C@]2(C1)C(=O)O[C@@H]1C[C@@]3(C)C(=O)CC[C@H](C)C3=C[C@@H]12 [1p, (11 S)-16-(5-chloro-2-methoxylphenyl)-spiroisoxazoline-1-carbonyl-alantolactone] |  |  |  |  | > 40 µM | > 40 µM | 
17 | COc1cc(C2=NO[C@]3(C2)C(=O)O[C@@H]2C[C@@]4(C)C(=O)CC[C@H](C)C4=C[C@@H]23)c(Cl)c(OC)c1OC [1q, (11 S)-16-(2-chloro-3,4,5-trimethoxylphenyl)-spiroisoxazoline-1-carbonyl-alantolactone] |  |  |  |  | > 40 µM | > 40 µM | 
18 | CC1CCC(O)C2(C)CC3OC(=O)C(C)C3C=C12 (stereo not drawn) [1r, (11 S)-1β-hydroxy alantolactone derivative] |  |  |  |  | > 50 µM | > 50 µM | cytotoxic activity in words ([10]; SAR statement on Tables 2 and 3): loss of cytotoxic activity
19 | C=C1C(=O)O[C@@H]2C[C@]3(C)C(=C(C)CC[C@H]3OC(C)=O)C[C@H]12 [2a, 1β-ethanoyl ivangustin] | 32.3 ± 2 µM | > 40 µM | > 40 µM | 28.9 ± 4.5 µM |  |  | 
20 | C=C1C(=O)O[C@@H]2C[C@]3(C)C(=C(C)CC[C@H]3OC(=O)c3ccccc3)C[C@H]12 [2b, 1β-benzoyl ivangustin] | 27.9 ± 2.5 µM | > 40 µM | > 40 µM | > 40 µM |  |  | 
21 | C=C1C(=O)O[C@@H]2C[C@]3(C)C(=C(C)CC[C@H]3OC(=O)c3ccc(F)cc3)C[C@H]12 [2c, 1β-(4-fluorobenzoyl) ivangustin] | > 40 µM | > 40 µM | > 40 µM | > 40 µM |  |  | 
22 | C=C1C(=O)O[C@@H]2C[C@@]3(C)C(=O)CCC(C)=C3C[C@H]12 [2d, 1-carbonyl-ivangustin] | 8.6 ± 1.4 µM | 14.1 ± 2.9 µM | 7.7 ± 1.5 µM | 7 ± 2.1 µM |  |  | IC50 [2]: 12.1 ± 5.2 µM; IC50 [3]: 10.5 ± 0.5 µM
23 | C=C1C(=O)OC2CC3(C)C(=CC12)C(C)CCC3O (stereo not drawn) [compound 1, 1β-hydroxyalantolactone] | 3.2 ± 0.8 µM |  | 5.2 ± 0.1 µM | 4.5 ± 0.7 µM |  |  | %G0/G1 (PC-3 cells [7]; 1.0 μM): 51.2%; %G2/M (PC-3 cells [7]; 1.0 μM): 17.1%; %S (PC-3 cells [7]; 1.0 μM): 31.7%; %G0/G1 (PC-3 cells [7]; 2.0 μM): 49.3%; %G2/M (PC-3 cells [7]; 2.0 μM): 16.7%; %S (PC-3 cells [7]; 2.0 μM): 34.0%; %G0/G1 (PC-3 cells [7]; 4.0 μM): 45.8%; %G2/M (PC-3 cells [7]; 4.0 μM): 18.0%; %S (PC-3 cells [7]; 4.0 μM): 36.2%; IC50 [11]: 6.4 ± 0.1 µM; IC50 [3]: 9.2 ± 0.1 µM; IC50 [12]: 3.3 ± 0.2 µM; IC50 ([10]; Homo sapiens, range over four cancer cell lines, read-out: IC50 range against HeLa, PC-3, HEp-2 and HepG2 cells): 3.2 to 6.4 µM
